# From ChEMBL document CHEMBL5537193, “Multitargeting HDAC Inhibitors Containing a RAS/RAF Protein Interfering Unit” (J Med Chem, 2024)
# Calls of active or inactive are those of the source. No cut-off for these calls is given here.
# Key:
# [1] = Metabolic stability in rat liver microsomes assessed as intrinsic clearance measured upto 40 mins by LC-MS/MS analysis; type: ADME, Microsome; settings: read-out: CLH
# [2] = Metabolic stability in mouse liver microsomes assessed as half-life measured upto 40 mins by LC-MS/MS analysis; type: ADME, Microsome
# [3] = Metabolic stability in mouse liver microsomes assessed as intrinsic clearance measured upto 40 mins by LC-MS/MS analysis; type: ADME, Microsome; settings: read-out: CLH
# [4] = Metabolic stability in human liver microsomes assessed as intrinsic clearance measured upto 40 mins by LC-MS/MS analysis; type: ADME, Microsome; settings: read-out: CLH
# [5] = Metabolic stability in rat liver microsomes assessed as half-life measured upto 40 mins by LC-MS/MS analysis; type: ADME, Microsome
# [6] = Metabolic stability in human liver microsomes assessed as half-life measured upto 40 mins by LC-MS/MS analysis; type: ADME, Microsome
# L02 = experiment: cells; settings: Homo sapiens, L02, 72 h
# Description: Cytotoxicity against human L02 cells assessed as inhibition of cell growth incubated for 72 hrs by MTT assay
# NCI-H1975 = experiment: cells; settings: Homo sapiens, NCI-H1975, 72 h
# Description: Cytotoxicity against human NCI-H1975 cells assessed as inhibition of cell growth incubated for 72 hrs by MTT assay
# A-431 = experiment: cells; settings: Homo sapiens, A-431, 72 h
# Description: Cytotoxicity against human A-431 cells assessed as inhibition of cell growth incubated for 72 hrs by MTT assay
# MCF7 = experiment: cells; settings: Homo sapiens, MCF7, 72 h
# Description: Cytotoxicity against human MCF7 cells assessed as inhibition of cell growth incubated for 72 hrs by MTT assay
# A549 = experiment: cells; settings: Homo sapiens, A549, 72 h
# Description: Cytotoxicity against human A549 cells assessed as inhibition of cell growth incubated for 72 hrs by MTT assay
# SGC-7901 = experiment: cells; settings: Homo sapiens, SGC-7901, 72 h
# Description: Cytotoxicity against human SGC-7901 cells assessed as inhibition of cell growth incubated for 72 hrs by MTT assay
# HepG2 = experiment: cells; settings: Homo sapiens, HepG2, 72 h
# Description: Cytotoxicity against human HepG2 cells assessed as inhibition of cell growth incubated for 72 hrs by MTT assay
# PANC-1 [7] = experiment: Induction of apoptosis in human PANC-1 cells assessed as increase in cleaved caspase-9 expression level at 2 uM incubated for 24 hrs by Western blot analysis; type: functional, cell-based
# PANC-1 [8] = experiment: Induction of apoptosis in human PANC-1 cells assessed as increase in Cytochrome C expression level at 2 uM incubated for 24 hrs by Western blot analysis; type: functional, cell-based
# PANC-1 [9] = experiment: Cell cycle arrest in human PANC-1 cells assessed as accumulation of cells at GO-G1 phase at 2 uM incubated for 24 hrs by PI/RNase staining based flow cytometric analysis; type: functional
# HT-29 = experiment: Induction of apoptosis in human HT-29 cells assessed as apoptotic ratio at 2 uM incubated for 24 hrs by flow cytometric analysis; type: functional
# PANC-1 [10] = experiment: Induction of apoptosis in human PANC-1 cells assessed as apoptotic cells at 2 uM incubated for 24 hrs by flow cytometric analysis relative to control; type: functional
# PANC-1 [11] = experiment: Induction of apoptosis in human PANC-1 cells assessed as increase in Bax expression at 2 uM incubated for 24 hrs by Western blot analysis; type: functional, cell-based
# PANC-1 [12] = experiment: Induction of apoptosis in human PANC-1 cells assessed as increase in cleaved PARP expression level at 2 uM incubated for 24 hrs by Western blot analysis; type: functional, cell-based
# PANC-1 [13] = experiment: Induction of apoptosis in human PANC-1 cells assessed as increase in cleaved caspase-3 expression level at 2 uM incubated for 24 hrs by Western blot analysis; type: functional, cell-based
# [14] = target: Serine/threonine-protein kinase PLK1 (Homo sapiens, UniProt P53350); experiment: Inhibition of PLK1 (unknown origin)
# Sequence of Serine/threonine-protein kinase PLK1 (P53350 whole entry): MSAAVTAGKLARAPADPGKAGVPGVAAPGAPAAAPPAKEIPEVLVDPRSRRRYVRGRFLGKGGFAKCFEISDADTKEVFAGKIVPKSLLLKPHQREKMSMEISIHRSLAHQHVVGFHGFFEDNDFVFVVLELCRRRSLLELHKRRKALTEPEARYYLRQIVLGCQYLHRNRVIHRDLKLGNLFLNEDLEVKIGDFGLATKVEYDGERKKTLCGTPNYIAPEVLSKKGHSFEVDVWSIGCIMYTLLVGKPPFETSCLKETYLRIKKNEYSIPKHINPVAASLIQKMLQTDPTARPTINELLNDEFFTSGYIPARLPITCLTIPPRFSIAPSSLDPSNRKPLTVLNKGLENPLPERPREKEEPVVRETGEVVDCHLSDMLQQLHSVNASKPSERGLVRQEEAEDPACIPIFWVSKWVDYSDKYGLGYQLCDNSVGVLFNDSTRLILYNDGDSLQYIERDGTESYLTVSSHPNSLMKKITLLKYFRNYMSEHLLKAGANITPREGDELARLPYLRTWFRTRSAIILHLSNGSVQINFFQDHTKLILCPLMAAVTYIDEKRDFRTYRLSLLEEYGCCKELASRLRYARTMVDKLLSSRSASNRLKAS
IC50 (NCI-H1975) [µM],IC50 (A-431) [µM],IC50 (MCF7) [µM],IC50 (A549) [µM],IC50 (SGC-7901) [µM],IC50 (HepG2) [µM],Compound,IC50 (L02) [µM],other results
4.75,4.47,10.5,12.8,8.89,7.54,COc1cc(OC)c(/C=C/S(=O)(=O)Cc2ccc(OC)c(NCCCCCC(=O)Nc3ccccc3N)c2)c(OC)c1,> 40,–
2.18,4.14,4.94,3.67,4.98,4.75,COc1cc(OC)c(/C=C/S(=O)(=O)Cc2ccc(OC)c(NCC(=O)Nc3ccccc3N)c2)c(OC)c1,> 40,–
5.08,4.64,7.56,6.02,4.92,4.64,COc1cc(OC)c(/C=C/S(=O)(=O)Cc2ccc(OC)c(NCCCCCC(=O)NO)c2)c(OC)c1,> 40,–

# Continued, compound first:
Compound,IC50 (NCI-H1975) [µM],IC50 (A-431) [µM],IC50 (MCF7) [µM],IC50 (A549) [µM],IC50 (SGC-7901) [µM],IC50 (HepG2) [µM],IC50 (L02) [µM],other results
O=C(c1ccc(F)cc1)C1CCN(CCn2c(=O)[nH]c3ccccc3c2=O)CC1 [KETANSERIN],–,–,–,–,–,–,–,CLint scaled [1]: 141 mL/min/kg; half-life [2]: 20.6 min; CLint scaled [3]: 265 mL/min/kg; CLint scaled [4]: 47.5 mL/min/kg; half-life [5]: 17.6 min; half-life [6]: 36.6 min
O=C(CCCCCCC(=O)Nc1ccccc1)NO [VORINOSTAT],–,–,–,–,2.89,–,–,Activity (PANC-1 [7]): Active; Activity (PANC-1 [8]): Active; Activity (PANC-1 [9]): Active; Activity (HT-29): 21.4%; Activity (PANC-1 [10]): 20.5%; Activity (PANC-1 [11]): Active; Activity (PANC-1 [12]): Active; Activity (PANC-1 [13]): Active; IC50 [14]: 1.6 µM
COc1cc(OC)c(/C=C/S(=O)(=O)Cc2ccc(OC)c(NC(=O)CCCC(=O)NO)c2)c(OC)c1,0.67,11.4,3.78,1.74,1.87,5.89,> 40,–
